The term inhibition denotes the change of the read-out against control, counted positive when it falls.

Each structure is given as a SMILES string.

The test system of one data set is Echinochloa crusgalli. Kind of data set: Post-emergence test, ALS-resistant weed (Table 4). In kind it is in vivo. The settings on record: Echinochloa crus-galli, 504 h, 3 weeks, resistant to ALS inhibitor herbicides, read-out: Echinochloa crusgalli, activity level (growth inhibition rate). Here is the method:
(§1) Post-emergence test experiment: Monocotyledonous and dicotyledonous weed seeds and main crop seeds (i. e. wheat, corn, rice, soybean, cotton, oilseed, millet and sorghum.) were put into a plastic pot loaded with soil. Then covered with 0.5-2 cm soil, the seeds were allowed to grow in good greenhouse environment. The test plants were treated at 2-3 leaf stage 2 weeks after sowing. The test compounds of the invention were dissolved with acetone respectively, then added with tween-80, and using 1.5 liters per hectare of an emulsible concentrate of methyl oleate as a synergist, and diluted by certain amount of water to certain concentration. The solution was sprayed to the plants with a sprayer. Then the plants were cultured for 3 weeks in the greenhouse, and the experiment result of weed controlling effect after 3 weeks was listed in tables 3-4.
(§2) Note: the application dose was active ingredient 600 g/ha, plus water 450 kg/ha. Echinochloa crusgalli and Cyperus iria were collected from Hunan province of China, and were resistant to ALS inhibitor herbicides.

The subject of a further data set is Cyperus iria. Kind of data set: Post-emergence test, ALS-resistant weed (Table 4). In kind it is in vivo. The settings on record: 504 h, 3 weeks, resistant to ALS inhibitor herbicides, read-out: Cyperus iria, activity level (growth inhibition rate). How it is done:
as §1, §2

The test system of a further data set is Japonica rice. Kind of data set: Post-emergence test, crop safety (Table 4). In kind it is in vivo. The note with it: 3 weeks after treatment. How it is done: as §1
(§3) […] Echinochloa crusgalli and Cyperus iria were collected from Hunan province of China, and were resistant to ALS inhibitor herbicides.

The next data set deals with Indica rice. Put plainly: Post-emergence test, crop safety (Table 4). The settings on record: 3 weeks after treatment. In kind it is in vivo. Here is the method: as §1, §3
The next data set has as its system rice. The note with it: known compound; cited from earlier work.
Data set [1] concerns Echinochloa crusgalli, Digitaria sanguinalis, Leptochloa chinensis and Setaria viridis. The note with it: commercial product; cited from earlier work.
In a further data set the test system is Soybean. Put plainly: Spray drift test by unmanned gyroplane, neighbouring soybean field. In kind it is in vivo. The settings on record: 600 g/ha applied by unmanned gyroplane, soybean field at 10 meters, gentle breeze. Here is the method: Broadleaf crops are very sensitive to hormonal herbicides, therefore crop injuries are more likely to occur in case of spray drifting. Tests were conducted in gentle breeze for the compounds of the present invention. The formulation of the compounds of the present invention was applied by DJI unmanned gyroplane with application height of 1 m and water volume of 20 kg/ha. The use rate was 600 g/ha. The active ingredient was dissolved by acetone and diluted to aqueous solution of Tween 80. There's a soybean field at 10 meters from the application area and the height of soybean plants were about 15 cm at the application time.

Another data set relates to Monochoria vaginalis. Put plainly: Weed control effect evaluation in rice field. The format is in vivo. The settings on record: paddy pot, 50 g/ha, 14 days after treatment, resistant to pyrazosulfuron-ethyl and penoxsulam. Here is the method:
Rice field soil was loaded into a 1/1,000,000 ha pot. The seeds of Monochoria vaginalis were sowed and gently covered with soil, then left to stand still in greenhouse in the state of 0.5-1 cm of water storage. It was kept at 3-4 cm of water storage thereafter. The weeds were treated by dripping the WP or SC water diluents prepared according to the common preparation method of the compounds of the present invention with pipette homogeneously to achieve specified effective amount when Monochoria vaginalis reached 0.5 leaf stage.
The fertility condition of Monochoria vaginalis 14 days and rice 21 days after the treatment of the compound of the invention with the naked eye.
Note: The seeds of Monochoria vaginalis were collected from Heilongjing Province of China.

Regarding `COc1cc(OC)nc(Oc2cccc(Oc3nc(OC)cc(OC)n3)c2C(=O)O)n1` [Bispyribac-sodium], the inhibition at 100 g/ha in the data set on Echinochloa crusgalli (100 g/ha) was 5 to 20%; in the data set on Cyperus iria (100 g/ha), 20 to 40%. Also, the “Japonica rice, activity level (growth inhibition rate)” value with Japonica rice (100 g/ha) was 4 (Level 4: the growth inhibition rate is equal to or greater than 60% and less than 85%). In addition, the “Indica rice, activity level (growth inhibition rate)” value with Indica rice (100 g/ha) is 2 (Level 2: the growth inhibition rate is equal to or greater than 20% and less than 40%).
For `CC(Oc1nc(F)c(Cl)c(N)c1Cl)C(=O)O` (centres unmarked) [Control compound A], the inhibition at 300 g/ha in the data set with Echinochloa crusgalli (300 g/ha) and with Cyperus iria (300 g/ha) was 60 to 85% each time. Besides, the inhibition at 600 g/ha in the data set on Echinochloa crusgalli and in the data set with Cyperus iria was more than 85% in each case. For the same molecule, the Safety and selectivity result in the data set with rice was “poor safety and low selectivity”. The “Japonica rice, activity level (growth inhibition rate)” value is 2 (Level 2: the growth inhibition rate is equal to or greater than 20% and less than 40%) in the data set on Japonica rice (300 g/ha); 3 (Level 3: the growth inhibition rate is equal to or greater than 40% and less than 60%) in the data set with Japonica rice (600 g/ha). In addition, the “Indica rice, activity level (growth inhibition rate)” value is 3 (Level 3: the growth inhibition rate is equal to or greater than 40% and less than 60%) in the data set on Indica rice (300 g/ha); 3 (Level 3: the growth inhibition rate is equal to or greater than 40% and less than 60%) with Indica rice (600 g/ha).
Turning to `CCCCOCC(C)OC(=O)COc1nc(F)c(Cl)c(N)c1Cl` (centres unmarked) [Control compound B], the inhibition at 600 g/ha is 20 to 40% in the data set with Echinochloa crusgalli and 40 to 60% with Cyperus iria. In addition, the “Japonica rice, activity level (growth inhibition rate)” value in the data set with Japonica rice (600 g/ha) was 2 (Level 2: the growth inhibition rate is equal to or greater than 20% and less than 40%). In the data set with Indica rice (600 g/ha), the “Indica rice, activity level (growth inhibition rate)” value was 2 (Level 2: the growth inhibition rate is equal to or greater than 20% and less than 40%). Besides, the “Efficacy on key grasses in rice” value in data set [1] is “very poor”.
Take `CCOC(=O)C(C)Oc1nc(F)c(Cl)c(N)c1Cl` (centres unmarked) [Control compound C]: the “Soybean, injury level from spray drift” value with Soybean was 3 (Level 3: the growth inhibition rate is equal to or greater than 40% and less than 60%).
For the molecule `COc1cnc(OC)n2nc(NS(=O)(=O)c3c(OCC(F)F)cccc3C(F)(F)F)nc12` [Penoxsulam], in the data set with Monochoria vaginalis, the “Monochoria Vaginalis, activity level” value is 1 (Level 1: the growth inhibition rate is equal to or greater than 5% and less than 20%).
